Assay results as given in the supplement of paper PMC10307832.

Legend:
Assay in all cases: relative viability (nuclei count vs DMSO), 5 days (fraction); higher = more cells survive
Avagacestat + Bortezomib = compound: NC(=O)[C@@H](CCC(F)(F)F)N(Cc1ccc(-c2ncon2)cc1F)S(=O)(=O)c1ccc(Cl)cc1 [Avagacestat] + CC(C)C[C@H](NC(=O)[C@H](Cc1ccccc1)NC(=O)c1cnccn1)B(O)O [Bortezomib] (partner 0.002 µM)
Outline: (§1)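 Lung cancer cell lines were pin-tool dosed in 1536-well plates on the day after seeding, with either a lone drug or a fixed anchor-drug dose plus five library-drug doses (not always all listed) in √10 steps. Nuclei were counted on 4× images after 5 days. Relative viability is the ratio of treated-well to vehicle-well nuclei counts, with each value a median of duplicate plates.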

Avagacestat + Lapatinib = compound: NC(=O)[C@@H](CCC(F)(F)F)N(Cc1ccc(-c2ncon2)cc1F)S(=O)(=O)c1ccc(Cl)cc1 [Avagacestat] + CS(=O)(=O)CCNCc1ccc(-c2ccc3ncnc(Nc4ccc(OCc5cccc(F)c5)c(Cl)c4)c3c2)o1 [Lapatinib] (partner 2 µM)
Outline: as §1

Avagacestat + AZD7762 = compound: NC(=O)[C@@H](CCC(F)(F)F)N(Cc1ccc(-c2ncon2)cc1F)S(=O)(=O)c1ccc(Cl)cc1 [Avagacestat] + NC(=O)Nc1cc(-c2cccc(F)c2)sc1C(=O)N[C@H]1CCCNC1 [AZD7762] (partner 0.2 µM)
Outline: as §1

Avagacestat + Decitabine = compound: NC(=O)[C@@H](CCC(F)(F)F)N(Cc1ccc(-c2ncon2)cc1F)S(=O)(=O)c1ccc(Cl)cc1 [Avagacestat] + Nc1ncn([C@H]2C[C@H](O)[C@@H](CO)O2)c(=O)n1 [Decitabine] (partner 2 µM)
Outline: as §1

Cell Line	relative viability (Avagacestat + Bortezomib; first compound 0.08 µM)	relative viability (Avagacestat + Bortezomib; first compound 0.253 µM)	relative viability (Avagacestat + Bortezomib; first compound 0.8 µM)	relative viability (Avagacestat + Bortezomib; first compound 2.53 µM)	relative viability (Avagacestat + Bortezomib; first compound 8 µM)	relative viability (Avagacestat + Lapatinib; first compound 0.08 µM)	relative viability (Avagacestat + Lapatinib; first compound 0.253 µM)	relative viability (Avagacestat + Lapatinib; first compound 0.8 µM)	relative viability (Avagacestat + Lapatinib; first compound 2.53 µM)	relative viability (Avagacestat + Lapatinib; first compound 8 µM)	relative viability (Avagacestat + AZD7762; first compound 0.08 µM)	relative viability (Avagacestat + AZD7762; first compound 0.253 µM)	relative viability (Avagacestat + AZD7762; first compound 0.8 µM)	relative viability (Avagacestat + AZD7762; first compound 2.53 µM)	relative viability (Avagacestat + AZD7762; first compound 8 µM)	relative viability (Avagacestat + Decitabine; first compound 0.08 µM)	relative viability (Avagacestat + Decitabine; first compound 0.253 µM)	relative viability (Avagacestat + Decitabine; first compound 0.8 µM)	relative viability (Avagacestat + Decitabine; first compound 2.53 µM)	relative viability (Avagacestat + Decitabine; first compound 8 µM)
NCI-H1975	0.382	0.343	0.415	0.327	0.318	0.852	1.1	1.03	0.935	0.859	0.718	0.712	0.853	0.649	0.642	0.371	0.355	0.425	0.341	0.412
NCI-H1993	1.37	1.35	1.47	1.27	1.3	0.956	0.659	0.738	0.731	0.674	0.956	0.61	0.741	0.731	0.6	0.618	0.583	0.618	0.611	0.564
NCI-H2085	1.13	1.21	1.14	1.13	0.992	0.805	0.939	0.912	0.728	0.811	1.07	1.13	1.09	1.08	0.794	0.531	0.609	0.639	0.572	0.585
NCI-H2087	0.946	1.05	0.917	0.918	0.8	1.33	1.04	1.05	1.25	1.06	1.41	1.65	1.31	1.24	1.18	0.3	0.279	0.374	0.25	0.257
NCI-H2126	1.15	1.1	1.1	1.18	1.02	0.767	0.837	0.805	0.722	0.657	1.02	0.979	1.01	0.912	1.02	0.615	0.661	0.577	0.575	0.611
NCI-H2347	1.1	0.914	0.935	0.862	0.79	0.997	0.966	1.04	0.923	0.909	0.707	0.783	0.743	0.696	0.587	0.661	0.654	0.631	0.553	0.6
NCI-H2405	1.06	1.03	0.999	0.919	0.94	1.02	1.12	1.21	0.958	1	0.895	0.839	0.73	0.701	0.754	0.758	0.703	0.692	0.673	0.684
NCI-H3122	1.06	1.03	1.05	1.01	0.969	1.1	1.1	1.03	1.05	0.99	1.09	1.11	0.997	0.908	0.964	0.513	0.428	0.445	0.402	0.37
PC-3 [JPC-3]	0.789	1.01	0.924	0.902	0.914	0.485	0.541	0.472	0.479	0.475	0.983	0.972	1.19	0.842	0.775	0.857	0.808	0.824	0.789	0.87
PC-14	1.12	1.12	0.848	0.785	0.77	0.336	0.329	0.476	0.236	0.315	0.53	0.568	0.581	0.39	0.392	0.219	0.244	0.218	0.272	0.244
RERF-LC-KJ	1.17	1.37	1.16	1.04	1.02	1.12	0.887	0.871	0.889	0.751	1.02	1.14	1.24	0.929	0.751	0.686	0.705	0.622	0.686	0.645
